This is an account of results in patent publication US20240217968A1, “PHARMACEUTICAL COMPOUND” (DUKE STREET BIO LIMITED, priority 2021, published 2024).

The target of this assay is T1, recombinant human Flag-tagged PARP7 (amino acids 456-657) (Homo sapiens, UniProt Q7Z3E1).
T1 construct: recombinant human Flag-tagged PARP7 (amino acids 456-657)
T1 sequence (Q7Z3E1 456-657): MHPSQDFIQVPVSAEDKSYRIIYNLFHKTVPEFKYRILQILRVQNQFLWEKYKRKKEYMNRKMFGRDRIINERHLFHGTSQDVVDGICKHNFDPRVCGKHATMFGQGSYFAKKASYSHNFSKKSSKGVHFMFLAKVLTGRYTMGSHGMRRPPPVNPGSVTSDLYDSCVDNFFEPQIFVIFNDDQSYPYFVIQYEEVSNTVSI
The experiment in a line: PARP7 biochemical DELFIA assay (auto-MARylation). As to conditions: DELFIA readout, IC50 class. The procedure, abridged: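 Readout is DELFIA time-resolved Eu fluorescence (Ex337 nm, Em620 nm) of biotin-ADP-ribose on immobilised Flag-tagged PARP7 456-657. Enzyme (12.5-37.5 nM as added) sat 30 min with compound before biotin-NAD+ (15 μM solution, pH 7.5 HEPES buffer) started 2-3 h room-temperature self-modification, stopped with excess NAD+.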
A word on the IC50: it is the concentration that inhibits the measured activity by half. Consider `O=C(CCOCCn1nc(C(F)(F)F)c2c(=O)[nH]ncc21)N1CCN(c2nc3cc(F)ccc3o2)CC1` [Compound 215, 1-(2-(3-(4-(5-fluorobenzo[d]oxazol-2-yl)piperazin-1-yl)-3-oxopropoxy)ethyl)-3-(trifluoromethyl)-1,5-dihydro-4H-pyrazolo[3,4-d]pyridazin-4-one], for which the IC50 was ≤ 100 nM. For `CC(COCCC(=O)N1CCN(c2ncc(C#N)cn2)CC1)n1cc(C(F)F)c2c(=O)[nH]ncc21` (centres unmarked) [Compound 440] the value was ≤ 100 nM. For `Cc1cn(CCOCCC(=O)N2CCN(c3ncc(C(F)(F)F)cn3)CC2)c2cn[nH]c(=O)c12` [Compound 74, 3-methyl-1-(2-(3-oxo-3-(4-(5-(trifluoromethyl)pyrimidin-2-yl)piperazin-1-yl)propoxy)ethyl)-1,5-dihydro-4H-pyrrolo[2,3-d]pyridazin-4-one] the value was ≤ 100 nM; for `CC(COCCC(=O)N1CCN(c2nnc(C(F)(F)F)[nH]2)CC1)n1nc(C(F)(F)F)c2c(=O)[nH]ncc21` (single isomer, unassigned) [Compound 393], ≤ 100 nM.

On to `CC(COCCC(=O)N1CCN(c2ncc(C(F)(F)F)cn2)CC1)n1nc(C(F)(F)F)c2c(=O)[nH]ncc21` (single isomer, unassigned) [Compound 176, 1-(1-(3-oxo-3-(4-(5-(trifluoromethyl)pyrimidin-2-yl)piperazin-1-yl)propoxy)propan-2-yl)-3-(trifluoromethyl)-1,5-dihydro-4H-pyrazolo[3,4-d]pyridazin-4-one], for which the half-inhibitory concentration (IC50) was ≤ 100 nM. Next, `CC(OCCCC(=O)N1CCN(c2ncc(C(F)(F)F)cn2)CC1)c1cccc2c(=O)[nH]ncc12` (single isomer, unassigned) [Compound 122]: ≤ 100 nM; `O=C(CCOCCN1C(=O)CCc2c1cn[nH]c2=O)N1CCN(c2ccc(C(F)(F)F)cn2)CC1` [Compound 240, 1-(2-(3-oxo-3-(4-(5-(trifluoromethyl)pyridin-2-yl)piperazin-1-yl)propoxy)ethyl)-4,6-dihydropyrido[2,3-d]pyridazine-2,5(1H,3H)-dione]: ≤ 100 nM; `O=C(CCOCCc1cccc2c(=O)[nH]ncc12)N1CCN(c2ccccn2)CC1` [Compound 103]: 100 to 1000 nM. With `N#Cc1ccc(N2CCN(C(=O)c3cccc(Cc4cccc5c4NCNC5=O)c3)CC2)nc1` [Compound 46], the IC50 lay in the range of 100 to 1000 nM. In the case of `CC1CN(c2ncc(C(F)(F)F)cn2)CCN1C(=O)CCOCCn1cc(C(F)(F)F)c2c(=O)[nH]ncc21` (single isomer, unassigned) [Compound 370], the IC50 is ≤ 100 nM. Next, `O=C(COCCc1cccc2c(=O)[nH]ncc12)NC1CCN(c2ncc(C(F)(F)F)cn2)CC1` [Compound 107]: ≤ 100 nM; `O=C(CCOCCn1nc(C(F)(F)F)c2c(=O)[nH]ncc21)N1CCN(c2nnc(C(F)(F)F)o2)CC1` [Compound 434]: ≤ 100 nM. For `CC(COCCC(=O)N1CCN(c2ccc(C(F)(F)F)cn2)CC1)n1nc(C(F)(F)F)c2c(=O)[nH]ncc21` (centres unmarked) [Compound 179] the value was ≤ 100 nM. Take `CCC(OCCCC(=O)N1CCN(c2ncc(C(F)(F)F)cn2)CC1)c1cccc2c(=O)[nH]ncc12` (centres unmarked) [Compound 209]: the IC50 was ≤ 100 nM. Next, `CC(COCCC(=O)N1CCN(c2nnc(C(F)(F)F)o2)CC1)n1nc(C(F)(F)F)c2c(=O)[nH]ncc21` (single isomer, unassigned) [Compound 473]: 100 to 1000 nM; `O=C(Cn1nc(C(F)(F)F)c2c(=O)[nH]ncc21)N1CCC(C(=O)N2CCN(c3ncc(C(F)(F)F)cn3)CC2)C1` (centres unmarked) [Compound 442]: 1000 to 10000 nM; `Cc1nn(CCOCCC(=O)N2CCN(c3ncc(C(F)(F)F)cn3)C(C)C2)c2cn[nH]c(=O)c12` (single isomer, unassigned) [Compound 255]: ≤ 100 nM. For the compound `CC(COCCC(=O)N1CCN(c2ncc(F)cn2)CC1)n1cc(C(F)(F)F)c2c(=O)[nH]ncc21` (single isomer, unassigned) [Compound 468], the IC50 was ≤ 100 nM. Regarding `Cc1nn(C(C)COCCC(=O)N2CCN(c3ccc(C#N)cn3)CC2)c2cn[nH]c(=O)c12` (centres unmarked) [Compound 243], the IC50 was ≤ 100 nM.

Turning to `Cn1c(N2CCN(C(=O)CCOCCc3cccc4c(=O)[nH]ncc34)CC2)nc2ccccc21` [Compound 214], the IC50 is ≤ 100 nM. Next, `O=C(CCCOc1cccc2c(=O)[nH]ncc12)N1CCN(c2ncc(C(F)(F)F)cn2)CC1` [Compound 37]: 1000 to 10000 nM; `O=C(CCOCCn1nc(C(F)(F)F)c2c(=O)[nH]ncc21)N1CCN(c2ncc(C(F)(F)F)s2)CC1` [Compound 247]: ≤ 100 nM. Next, `CC(COCCC(=O)N1CCN(c2ncc(C#N)cn2)CC1)n1nc(C(F)F)c2c(=O)[nH]ncc21` (single isomer, unassigned) [Compound 490]: ≤ 100 nM; `CC(COCCC(=O)N1CCN(c2cc(F)c(F)cn2)CC1)n1nc(C(F)(F)F)c2c(=O)[nH]ncc21` (single isomer, unassigned) [Compound 419]: ≤ 100 nM; `O=C(CCOCCc1cccc2c(=O)[nH]ncc12)N1CCN(c2ncc(C(F)(F)F)s2)CC1` [Compound 106]: ≤ 100 nM.

Take `CC1CN(C(=O)CCOCCN2C(=O)CCc3c2cn[nH]c3=O)CCN1c1ncc(C(F)(F)F)cn1` (centres unmarked) [Compound 308]: the IC50 was ≤ 100 nM.

With `CC(COCCC(=O)N1CCN(c2cnc(C#N)cn2)CC1)n1nc(C(F)(F)F)c2c(=O)[nH]ncc21` (centres unmarked) [Compound 313], the half-inhibitory concentration (IC50) was ≤ 100 nM. Next, `O=C(CCOCCN1C(=O)CCc2c1cn[nH]c2=O)N1CCN(c2nc3ccccc3o2)CC1` [Compound 277]: ≤ 100 nM; `CCC(COCCC(=O)N1CCN(c2ncc(C(F)(F)F)cn2)CC1)n1nc(C(F)(F)F)c2c(=O)[nH]ncc21` (centres unmarked) [Compound 297]: ≤ 100 nM.

As to `N#Cc1ccc(N2CCN(C(=O)c3cccc(Cc4cc(Cl)cc5c(=O)[nH]ncc45)c3)CC2)nc1` [Compound 57], the IC50 was ≤ 100 nM. Next, `CC(COCCn1ncc2c(=O)[nH]ncc21)C(=O)N1CCN(c2ncc(C(F)(F)F)cn2)CC1` (centres unmarked) [Compound 156]: 100 to 1000 nM; `O=C1NCCc2c1ccn2CCOCCC(=O)N1CCN(c2ncc(C(F)(F)F)cn2)CC1` [Compound 56]: 1000 to 10000 nM; `CC(COCCC(=O)N1CCN(c2ncc(C(F)(F)F)cn2)CC1)n1ncc2c(=O)[nH]ncc21` (centres unmarked) [Compound 169]: 100 to 1000 nM.

Regarding `O=C(CCOCCn1cc(C(F)(F)F)c2c(=O)[nH]ncc21)N1CCN(c2nc3ccccc3o2)CC1` [Compound 379], the IC50 is ≤ 100 nM. For `CC(COCCC(=O)N1CCN(c2ncc(OC(F)F)cn2)CC1)n1nc(C(F)(F)F)c2c(=O)[nH]ncc21` (single isomer, unassigned) [Compound 294], the IC50 is ≤ 100 nM. For `O=C(CCOCCn1nc(C(F)(F)F)c2c(=O)[nH]ncc21)N1CCN(c2ccc(C3COC3)cn2)CC1` [Compound 295] the value was ≤ 100 nM. Regarding `CC(COCCC(=O)N1CCN(c2ncc(C(C)(C)C)cn2)CC1)n1cc(C(F)(F)F)c2c(=O)[nH]ncc21` (single isomer, unassigned) [Compound 499], the IC50 was ≤ 100 nM. For the compound `O=C(CCOCCc1cc(Cl)cc2c(=O)[nH]ncc12)N1CCN(c2ncc(C(F)(F)F)cn2)CC1` [Compound 80, 7-chloro-5-(2-(3-oxo-3-(4-(5-(trifluoromethyl)pyrimidin-2-yl)piperazin-1-yl)propoxy)ethyl)phthalazin-1(2H)-one], the IC50 is ≤ 100 nM. For `O=C(CCOCCn1nc(C(F)(F)F)c2c(=O)[nH]ncc21)N1CCN(c2ccc(C3CC3)cn2)CC1` [Compound 300] the value was ≤ 100 nM; for `CC(COCCC(=O)N1CCN(c2ncc(C(C)(F)F)cn2)CC1)n1nc(C(F)(F)F)c2c(=O)[nH]ncc21` (single isomer, unassigned) [Compound 486], ≤ 100 nM.

In the case of `CC(COCCC(=O)N1CCN(c2ccc(C#N)cn2)CC1)c1cccc2c(=O)[nH]ncc12` (centres unmarked) [Compound 70], the IC50 was in the range of 1000 to 10000 nM. With `CC(COCCC(=O)N1CCN(c2cnc(C#N)cn2)CC1)n1nc(C(F)(F)F)c2c(=O)[nH]ncc21` (centres unmarked) [Compound 312], the IC50 is ≤ 100 nM.

Consider `CC(COCCC(=O)N1CCN(c2ccc(C3CC3)cn2)CC1)n1nc(C(F)(F)F)c2c(=O)[nH]ncc21` (centres unmarked) [Compound 278], for which the IC50 is ≤ 100 nM. Consider `CC(OCCCC(=O)N1CCN(c2ncc(C(F)(F)F)cn2)CC1)c1cccc2c(=O)[nH]ncc12` (centres unmarked) [Compound 123], for which the IC50 was ≤ 100 nM. Regarding `CC(COCCC(=O)N1CCN(c2ncc(C(F)(F)F)cn2)CC1)n1c(=O)n(C)c2c(=O)[nH]ncc21` (centres unmarked) [Compound 398], the IC50 was ≤ 100 nM. Next, `O=C(CCOCCn1nc(C2CC2)c2c(=O)[nH]ncc21)N1CCN(c2ncc(C(F)(F)F)cn2)CC1` [Compound 333]: ≤ 100 nM. For `CN(C(=O)COCCc1cccc2c(=O)[nH]ncc12)C1CN(c2ncc(C(F)(F)F)cn2)C1` [Compound 109] the value was 1000 to 10000 nM. Next, `O=C(CCCOC(c1cccc2c(=O)[nH]ncc12)C(F)(F)F)N1CCN(c2ncc(C(F)(F)F)cn2)CC1` (single isomer, unassigned) [Compound 221, 5-(2,2,2-trifluoro-1-(4-oxo-4-(4-(5-(trifluoromethyl)pyrimidin-2-yl)piperazin-1-yl)butoxy)ethyl)phthalazin-1(2H)-one]: 100 to 1000 nM; `CC1CN(C(=O)CCOCCc2cccc3c(=O)[nH]ncc23)CCN1c1ncc(C(F)(F)F)cn1` (centres unmarked) [Compound 90]: ≤ 100 nM. On to `CC(COCCC(=O)N1CCN(c2ccc(C3COC3)cn2)CC1)n1nc(C(F)(F)F)c2c(=O)[nH]ncc21` (single isomer, unassigned) [Compound 311], for which the IC50 fell in the range of 100 to 1000 nM.
